Reference: patent publication US20240374692A1, “A NOVEL ACYLATED INSULIN ANALOG” (SUNSHINE LAKE PHARMA CO., LTD., priority 2021, published 2024)
Where two headings read alike, the source gives them in different places.

Tests used:
[1] = test system: STZ-induced type I diabetes mellitus (T1DM) C57BL/6 mice; assay: Hypoglycemic effect, repeated administration (three times) to STZ-induced T1DM C57BL/6 mice (Example 6); format: in vivo; parameters: key to random blood glucose: blood glucose in mmol/L; conditions: for random blood glucose: 500 nmol/Kg S.C. three times, Mean ± SEM, n = 7
Description: SPF grade C57BL/6 mice were reared in a suitable rearing box in a barrier environment, with a rearing temperature of 20-26° C., a humidity of 40-70%, a time between day and night of 12 h/12 h, and the mice had free access to standard food and autoclaved sterilization water. After the 3-day quarantine period and the 2-day acclimation period, the mice were fasted for 12 h, and the mice were injected intraperitoneally with streptozotocin solution (STZ, 13 mg/mL, in citrate buffer) at 130 mg/kg. 3 Days and 7 days after administration of streptozotocin, random blood glucose and fasting blood glucose were detected, and the random blood glucose value above 25 mmol/L and fasting blood glucose value above 11.1 mmol/L were selected as T1DM model mice for follow-up experiments. On the day before administration, random blood glucose was monitored and mice were weighed. Mice were divided into 6 groups according to random blood glucose and body weight.
Subcutaneous administration (S.C.) was used to administer the corresponding vehicle or drug, once every 4-5 days, for a total of 3 administrations. During the experiment, the animals were allowed to eat and drink water freely. The random blood glucose before the first administration, and 0.25, 0.5, 1, 2, 4, 6, 8, 10, 24, 48, 72, and 96 h after administration were assessed, as well as the random blood glucose before the second and third administration, and 0.5, 1, 2, 6, 24, 48, 72, 96 and 120 h after administration.
(§1) All raw data were entered into Excel files and expressed as Mean±SEM. Statistical analysis of data was performed using Graphpad Prism 7.0 software, one-way or two-way ANOVA comparison method, and P<0.05 was used as the criterion for significant differences.

[2] = rat, in vivo, iv, 10 nmol/kg
insulin receptor B = target: T1, insulin receptor B (Homo sapiens, UniProt P06213); assay: Insulin receptor B autophosphorylation in transfected cells (Cisbio Phospho-IR beta Tyr1150/1151 kit); format: cell-based; conditions: for Relative HI activity: relative to human insulin
T1 construct: expressed in transfected cells
Method in brief: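 Cells serum-starved ~4 h, then exposed 5 min at 37 °C, 5% CO2 to insulin derivative dilutions in 0.6% casein/EDTA/DPBS, optionally with 1.5% HSA to probe albumin binding. Tyr1150/1151 phosphorylation in lysate measured by HTRF kit; relative activity (%) from nonlinear curve fit.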

[3] = test system: STZ-induced type I diabetes mellitus (T1DM) C57BL/6 mice; assay: Hypoglycemic effect, repeated administration (four times) to STZ-induced T1DM C57BL/6 mice (Example 5); format: in vivo; parameters: key to random blood glucose: random blood glucose in mmol/L, Mean±SEM
Description: SPF grade C57BL/6 mice were reared in a suitable rearing box in a barrier environment, with a rearing temperature of 20-26° C., a humidity of 40-70%, a time between day and night of 12 h/12 h, and the mice had free access to standard food and autoclaved sterilization water. After a 3-day quarantine period and a 2-day acclimation period, the mice were fasted for 12 h, and the mice were injected intraperitoneally with streptozotocin solution (STZ, 13 mg/mL, in citrate buffer) or citrate buffer at 130 mg/kg (control group). 3 Days and 7 days after administration of streptozotocin, random blood glucose and fasting blood glucose were detected, and the random blood glucose value above 25 mmol/L and fasting blood glucose value above 11.1 mmol/L were selected as T1DM model mice for follow-up experiments. On the day before administration, random blood glucose was monitored and mice were weighed. Mice were divided into 4 groups according to random blood glucose and body weight.
Subcutaneous administration (S.C.) was used to administer the corresponding vehicle or drug, once every 4-5 days, for a total of 4 administrations. During the experiment, the animals were allowed to eat and drink water freely. The random blood glucose before the first administration, and 0.25, 0.5, 1, 2, 4, 6, 8, 10, 24, 48, 72, and 96 h after administration were assessed, as well as the random blood glucose before the second, third and fourth administration, and 1, 2, 4, 6, 8, 24, 48, 72, 96 and 120 h after administration.
as §1

[4] = mouse, in vivo, sc, 10 nmol/kg

T1 sequence (P06213 28-758 limits assumed): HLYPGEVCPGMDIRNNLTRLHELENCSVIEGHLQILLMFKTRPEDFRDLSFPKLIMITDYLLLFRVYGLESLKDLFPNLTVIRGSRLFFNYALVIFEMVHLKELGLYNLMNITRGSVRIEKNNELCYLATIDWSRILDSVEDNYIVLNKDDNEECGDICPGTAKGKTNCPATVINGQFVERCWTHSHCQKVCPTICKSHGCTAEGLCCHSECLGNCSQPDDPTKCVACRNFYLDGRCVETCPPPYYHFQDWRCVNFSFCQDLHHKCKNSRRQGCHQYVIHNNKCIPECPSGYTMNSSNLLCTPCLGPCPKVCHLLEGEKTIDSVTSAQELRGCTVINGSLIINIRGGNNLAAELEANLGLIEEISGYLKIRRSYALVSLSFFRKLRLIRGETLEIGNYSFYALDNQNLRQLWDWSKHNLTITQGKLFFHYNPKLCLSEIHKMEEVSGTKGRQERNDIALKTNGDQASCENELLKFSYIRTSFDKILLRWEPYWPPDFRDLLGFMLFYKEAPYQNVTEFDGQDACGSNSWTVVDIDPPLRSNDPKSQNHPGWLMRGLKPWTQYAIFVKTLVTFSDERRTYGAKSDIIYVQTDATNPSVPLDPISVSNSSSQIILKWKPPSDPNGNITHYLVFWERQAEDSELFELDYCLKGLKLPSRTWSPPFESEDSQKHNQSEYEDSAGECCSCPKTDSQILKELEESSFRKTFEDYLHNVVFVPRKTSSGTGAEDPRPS
T1 sequence (P06213 763-1382 partner limits assumed): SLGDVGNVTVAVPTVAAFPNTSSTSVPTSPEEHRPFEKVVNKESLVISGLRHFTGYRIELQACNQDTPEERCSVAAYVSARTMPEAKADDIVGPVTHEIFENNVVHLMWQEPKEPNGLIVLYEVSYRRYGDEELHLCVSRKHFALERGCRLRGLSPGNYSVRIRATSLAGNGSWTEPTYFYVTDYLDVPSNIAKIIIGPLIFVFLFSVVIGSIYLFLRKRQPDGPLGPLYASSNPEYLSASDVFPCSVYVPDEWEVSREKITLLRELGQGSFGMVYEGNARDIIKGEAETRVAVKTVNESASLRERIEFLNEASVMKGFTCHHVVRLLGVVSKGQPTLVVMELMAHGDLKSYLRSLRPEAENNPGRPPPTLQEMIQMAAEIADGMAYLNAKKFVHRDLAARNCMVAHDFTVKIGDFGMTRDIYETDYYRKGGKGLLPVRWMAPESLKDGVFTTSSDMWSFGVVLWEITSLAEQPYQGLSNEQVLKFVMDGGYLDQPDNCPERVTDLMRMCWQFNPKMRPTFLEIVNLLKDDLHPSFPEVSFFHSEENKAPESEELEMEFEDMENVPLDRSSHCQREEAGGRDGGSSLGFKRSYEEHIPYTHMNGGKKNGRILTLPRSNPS

EC50 (insulin receptor B; 0% HSA): 0.213 µM
Relative HI activity (insulin receptor B; 0% HSA): 0.58%
EC50 (insulin receptor B; 1.5% HSA): 4.49 µM
Relative 0% HSA activity (insulin receptor B; 1.5% HSA relative to 0% HSA): 5.86%
Relative HI activity (insulin receptor B; 1.5% HSA): 0.06%
Substance: A14E, B16E, B25H, B29K(N(ε)-COOH(CH2)18CO-L-Lys-CO(CH2)2CO—(OEG)2), desB30 human insulin analog [Insulin-a3]
effective glucose control time ([1]; 500 nmol/Kg S.C.): 96 to 120 h
random blood glucose ([1]; Day 0 (1st)): 31.8 ± 3.2
random blood glucose ([1]; Day 1): 20.7 ± 5.2
random blood glucose ([1]; Day 4 (2nd)): 29.7 ± 3.7
random blood glucose ([1]; Day 5): 20.1 ± 5.4
random blood glucose ([1]; Day 9 (3rd)): 27.7 ± 6.2
random blood glucose ([1]; Day 10): 16.0 ± 9.4
random blood glucose ([1]; Day 14): 27.4 ± 6.3
time after administration at which blood glucose returned to normal level ([1]; 500 nmol/Kg S.C., after the first and second administrations): 96 h
time after administration at which blood glucose returned to normal level ([1]; 500 nmol/Kg S.C., after the third administration): 120 h
time after each administration at which blood glucose reached the lowest level ([1]; Icodec 250, 500 and 1000 nmol/kg, Insulin-a3 and Insulin-a10 500 nmol/Kg): 24 h
glucose control effect compared with the Icodec-500 nmol/kg group ([1]; test drug 500 nmol/Kg S.C.): better
glucose control effect compared with the Icodec-1000 nmol/kg group ([1]; test drug 500 nmol/Kg S.C.): slightly worse
AUClast [2]: 9170 ng·h/mL
T1/2 [2]: 11.2 ± 1.9 h
glucose control effect and effective glucose control time compared with Insulin-a1 ([3]; 1400 nmol/Kg S.C. four times): significantly better
time after administration at which blood glucose reached the lowest level ([3]; 1400 nmol/Kg S.C., Insulin-a1 each administration, Insulin-a3 first and second administrations): 24 h
time after administration at which blood glucose reached the normal level ([3]; 1400 nmol/Kg S.C., after the first and second administrations): 96 h
time after administration at which blood glucose reached the normal level ([3]; 1400 nmol/Kg S.C., after the third and fourth administrations): 120 h
random blood glucose ([3]; Day 0 (1st administration), 1400 nmol/Kg S.C. four times): 31.3 ± 3.1
random blood glucose ([3]; Day 1, 1400 nmol/Kg S.C. four times): 17.4 ± 6.7
random blood glucose ([3]; Day 4 (2nd administration), 1400 nmol/Kg S.C. four times): 26.9 ± 8.0
random blood glucose ([3]; Day 5, 1400 nmol/Kg S.C. four times): 7.1 ± 3.8
random blood glucose ([3]; Day 9 (3rd administration), 1400 nmol/Kg S.C. four times): 26.2 ± 7.9
random blood glucose ([3]; Day 10, 1400 nmol/Kg S.C. four times): 8.6 ± 5.7
random blood glucose ([3]; Day 14 (4th administration), 1400 nmol/Kg S.C. four times): 24.4 ± 5.7
random blood glucose ([3]; Day 18, 1400 nmol/Kg S.C. four times): 19.7 ± 6.4
time the effective glucose control effect can be maintained ([3]; repeated administration, C57BL6 mice modeled by STZ): 4-5 days/time
AUClast [4]: 12300 ng·h/mL
T1/2 [4]: 18.6 h
